What all share (type): cell-based
One experiment deals with HeLa (cervical cancer). In words: Antiproliferative activity (CCK-8 cell viability), HeLa. Conditions: Homo sapiens, 72 h, read-out: Antiproliferative activity in cancerous cells, HELA (inhibition of cell growth); for inhibition at 3.3 µM: Compound concentration: 3.3 μM; for inhibition at 10 µM: Compound concentration: 10 μM; for inhibition at 30 µM: Compound concentration: 30 μM. The procedure, abridged:
(§1)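 Cells grown in DMEM (HepG2, SW480), MEM (HeLa) or F-12K (A549), each with 10% FBS, then exposed to compound at 3.3, 10 or 30 μM for 72 h at 37 °C. CCK-8 absorbance at 450 nm; viability expressed as percent of DMSO-treated cells, graded as growth inhibition bands.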

Experiment [1] deals with A549 (lung adenocarcinoma). In words: Antiproliferative activity (CCK-8 cell viability), A549. Particulars: Homo sapiens, 72 h, read-out: Antiproliferative activity in cancerous cells, A549 (inhibition of cell growth); for inhibition at 3.3 µM: Compound concentration: 3.3 μM; for inhibition at 10 µM: Compound concentration: 10 μM; for inhibition at 30 µM: Compound concentration: 30 μM. The procedure, abridged:
as §1

The next experiment relates to HepG2 (liver cancer). In words: Antiproliferative activity (CCK-8 cell viability), HepG2. Particulars: Homo sapiens, 72 h, read-out: Antiproliferative activity in cancerous cells, HepG2 (inhibition of cell growth); for inhibition at 3.3 µM: Compound concentration: 3.3 μM; for inhibition at 10 µM: Compound concentration: 10 μM; for inhibition at 30 µM: Compound concentration: 30 μM. The procedure, abridged: as §1

In experiment [2] the test system is A431 (epidermoid carcinoma). In words: Antiproliferative activity (CCK-8 cell viability), A431. Particulars: Homo sapiens, 72 h, read-out: Antiproliferative activity in cancerous cells, A431 (inhibition of cell growth); for inhibition at 3.3 µM: A-431, Compound concentration: 3.3 μM; for inhibition at 10 µM: A-431, Compound concentration: 10 μM; for inhibition at 30 µM: A-431, Compound concentration: 30 μM. The procedure, abridged:
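A431 epidermoid carcinoma cells grown in DMEM with 10% FBS were plated at 2,000-5,000 cells/well in 96-well plates. After attachment they were exposed to compound at 3.3 μM, 10 μM, or 30 μM for 72 h at 37° C. Viability was then assessed by CCK-8 against DMSO vehicle-treated wells.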

The test system of the next experiment is SW480 (colon cancer). In words: Antiproliferative activity (CCK-8 cell viability), SW480. Conditions: Homo sapiens, 72 h, read-out: Antiproliferative activity in cancerous cells, SW480 (inhibition of cell growth); for inhibition at 3.3 µM: Compound concentration: 3.3 μM; for inhibition at 10 µM: Compound concentration: 10 μM; for inhibition at 30 µM: Compound concentration: 30 μM. The procedure, abridged:
as §1

In experiment [3] the test system is MDA-MB-231 (breast cancer). In words: Antiproliferative activity (CCK-8 cell viability), MDA-MB-231. Conditions: Homo sapiens, 72 h, read-out: Antiproliferative activity in cancerous cells, MDA-MB-231 (inhibition of cell growth); for inhibition at 3.3 µM: Compound concentration: 3.3 μM; for inhibition at 10 µM: Compound concentration: 10 μM; for inhibition at 30 µM: Compound concentration: 30 μM. A digest of the protocol: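 MDA-MB-231 breast cancer cells, grown in DMEM with 10% FBS, were plated in 96-well plates at 2,000-5,000 cells/well. Once attached, they were exposed to compound and incubated at 37° C. for 72 h. Viability was then measured with CCK-8 (10 μL per well, 4 h at 37° C.) by absorbance at 450 nm, relative to DMSO vehicle wells.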

In experiment [4] the test system is B16F10 (malignant melanoma). In words: Antiproliferative activity (CCK-8 cell viability), B16F10. Conditions: Mus musculus, 72 h, read-out: Antiproliferative activity in cancerous cells, B16F10 (inhibition of cell growth); for inhibition at 3.3 µM: B16-F10, Compound concentration: 3.3 μM; for inhibition at 10 µM: B16-F10, Compound concentration: 10 μM; for inhibition at 30 µM: B16-F10, Compound concentration: 30 μM. A digest of the protocol:
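B16F10 melanoma cells grown in DMEM with 10% FBS were plated in 96-well plates at 2,000-5,000 cells/well. After attachment they were exposed to compound in medium for 72 h at 37° C. CCK-8 solution (10 μL) was then added, and after 4 h at 37° C absorbance was read at 450 nm.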

Consider 5 compounds from patent US20260184663A1, “INDENE COMPOUNDS, PHARMACEUTICAL COMPOSITIONS THEREOF, AND THEIR THERAPEUTIC APPLICATIONS” (NucMito Pharmaceuticals co. Ltd., priority 2022, published 2026).

Turning to `CC1=C(CC(=O)O)c2cc(Cl)c(Cl)cc2/C1=C/c1ccc(Oc2ccc(F)cc2)cc1` [E28, (E)-2-(5,6-Dichloro-1-(4-(4-fluorophenoxy)benzylidene)-2-methyl-1H-inden-3-yl)acetic acid], the inhibition at 3.3 µM is at least 50% in the experiment with HeLa (cervical cancer); at least 50% in experiment [1]; at least 50% in the experiment with HepG2 (liver cancer); 30 to 50% in experiment [2]; below 30% in the experiment with SW480 (colon cancer); at least 50% in experiment [3]. Moreover, the inhibition at 3.3 µM in experiment [4] was at least 50%. In addition, the inhibition at 10 µM (in the experiment on HeLa (cervical cancer); in experiment [1]; with HepG2 (liver cancer); in experiment [2]; in the experiment with SW480 (colon cancer); in experiment [3]) was at least 50% each time. For the same compound, the inhibition at 10 µM in experiment [4] was at least 50%. Also, the inhibition at 30 µM (in the experiment on HeLa (cervical cancer); in experiment [1]; in the experiment on HepG2 (liver cancer); in experiment [2]; with SW480 (colon cancer); in experiment [3]) was at least 50% in each case. In experiment [4], the inhibition at 30 µM was at least 50%.
Consider `CC1=C(CC(=O)O)c2cc(Cl)ccc2/C1=C/c1ccc(Oc2ccc(F)c(F)c2)cc1` [E29, (E)-2-(5-Chloro-1-(4-(3,4-difluorophenoxy)benzylidene)-2-methyl-1H-inden-3-yl)acetic acid], for which the inhibition at 3.3 µM in the experiment with HeLa (cervical cancer) is at least 50%; in experiment [1], below 30%; in the experiment on HepG2 (liver cancer), below 30%; in experiment [2], below 30%; in the experiment on SW480 (colon cancer), below 30%; in experiment [3] it was at least 50%. Moreover, the inhibition at 3.3 µM in experiment [4] is at least 50%. Further, the inhibition at 10 µM with HeLa (cervical cancer) was at least 50%; in experiment [1] it was at least 50%; with HepG2 (liver cancer), at least 50%; in experiment [2] it was 30 to 50%; in the experiment with SW480 (colon cancer), at least 50%; in experiment [3], at least 50%. Also, the inhibition at 10 µM in experiment [4] is at least 50%. In addition, the inhibition at 30 µM (with HeLa (cervical cancer); in experiment [1]; with HepG2 (liver cancer); in experiment [2]; in the experiment on SW480 (colon cancer); in experiment [3]) was at least 50% throughout. For the same compound, in experiment [4], the inhibition at 30 µM is at least 50%.
`CC1=C(CC(=O)O)c2cc(Cl)ccc2/C1=C/c1ccc(Oc2ccc(C(C)C)cc2)cc1` [E30, (E)-2-(5-Chloro-1-(4-(4-isopropylphenoxy)benzylidene)-2-methyl-1H-inden-3-yl)acetic acid]: the inhibition at 3.3 µM with HeLa (cervical cancer) was at least 50%; in experiment [1], below 30%; with HepG2 (liver cancer), 30 to 50%; in experiment [2], below 30%; in the experiment on SW480 (colon cancer) it was at least 50%; in experiment [3], at least 50%. The inhibition at 3.3 µM in experiment [4] was at least 50%. The inhibition at 10 µM (in the experiment on HeLa (cervical cancer); in experiment [1]; in the experiment with HepG2 (liver cancer); in experiment [2]; in the experiment with SW480 (colon cancer); in experiment [3]) was at least 50% each time. For the same compound, the inhibition at 10 µM in experiment [4] was at least 50%. Also, the inhibition at 30 µM (in the experiment on HeLa (cervical cancer); in experiment [1]; in the experiment on HepG2 (liver cancer); in experiment [2]; in the experiment with SW480 (colon cancer); in experiment [3]) was at least 50% in each case. Besides, the inhibition at 30 µM in experiment [4] was at least 50%.
On to `CCc1ccc(Oc2ccc(/C=C3\C(C)=C(CC(=O)O)c4cc(Cl)ccc43)cc2)cc1` [E31, (E)-2-(5-Chloro-1-(4-(4-ethylphenoxy)benzylidene)-2-methyl-1H-inden-3-yl)acetic acid], for which the inhibition at 3.3 µM with HeLa (cervical cancer) is at least 50%; in experiment [1], at least 50%; in the experiment on HepG2 (liver cancer), below 30%; in experiment [2], at least 50%; in the experiment with SW480 (colon cancer) it was 30 to 50%; in experiment [3], at least 50%. In experiment [4], the inhibition at 3.3 µM was 30 to 50%. In addition, the inhibition at 10 µM was at least 50% in the experiment with HeLa (cervical cancer); at least 50% in experiment [1]; at least 50% in the experiment with HepG2 (liver cancer); at least 50% in experiment [2]; 30 to 50% in the experiment with SW480 (colon cancer); at least 50% in experiment [3]. In experiment [4], the inhibition at 10 µM was at least 50%. Besides, the inhibition at 30 µM (with HeLa (cervical cancer); in experiment [1]; in the experiment with HepG2 (liver cancer); in experiment [2]; in the experiment on SW480 (colon cancer); in experiment [3]) was at least 50% throughout. For the same compound, the inhibition at 30 µM in experiment [4] is at least 50%.
For the compound `CC1=C(CC(=O)O)c2cc(Br)ccc2/C1=C/c1ccc(Oc2ccc(F)cc2)cc1` [E32, (E)-2-(5-Bromo-1-(4-(4-fluorophenoxy)benzylidene)-2-methyl-1H-inden-3-yl)acetic acid], the inhibition at 3.3 µM in the experiment on HeLa (cervical cancer) is at least 50%; in experiment [1] it was 30 to 50%; in the experiment on HepG2 (liver cancer), below 30%; in experiment [2], at least 50%; in the experiment with SW480 (colon cancer), 30 to 50%; in experiment [3] it was at least 50%. For the same compound, the inhibition at 3.3 µM in experiment [4] was at least 50%. Besides, the inhibition at 10 µM (in the experiment on HeLa (cervical cancer); in experiment [1]; in the experiment on HepG2 (liver cancer); in experiment [2]; with SW480 (colon cancer); in experiment [3]) was at least 50% throughout. Further, the inhibition at 10 µM in experiment [4] was at least 50%. Besides, the inhibition at 30 µM (in the experiment with HeLa (cervical cancer); in experiment [1]; in the experiment on HepG2 (liver cancer); in experiment [2]; with SW480 (colon cancer); in experiment [3]) was at least 50% in each case. Further, in experiment [4], the inhibition at 30 µM is at least 50%.

For orientation: inhibition means the drop in the measured response relative to a control, in per cent.
